Results as given in ChEMBL document CHEMBL4002640, “Discovery of MK-1832, a Kv1.5 inhibitor with improved selectivity and pharmacokinetics” (Bioorg Med Chem Lett, 2017).
Active and inactive are the calls of the source.

Assays:
[1] = Terminal half-life in dog; format: ADME, Canis lupus familiaris; details: in vivo, read-out: beta t1/2 (converted)
[2] = Terminal half-life in rhesus monkey; format: ADME, Macaca mulatta; details: in vivo, read-out: beta t1/2 (converted)
[3] = Terminal half-life in rat; format: ADME; details: in vivo, read-out: beta t1/2 (converted)
[4] = biological target: T1, Potassium voltage-gated channel subfamily A member 5 (Homo sapiens, UniProt P22460); assay: Inhibition of Kv1.5 (unknown origin)
[5] = biological target: T2, A-type voltage-gated potassium channel KCND3 (Homo sapiens, UniProt Q9UK17); assay: Inhibition of Kv4.3 (unknown origin) assessed as reduction in transient outward potassium current by high throughput clamp method
T2 sequence (Q9UK17 whole entry): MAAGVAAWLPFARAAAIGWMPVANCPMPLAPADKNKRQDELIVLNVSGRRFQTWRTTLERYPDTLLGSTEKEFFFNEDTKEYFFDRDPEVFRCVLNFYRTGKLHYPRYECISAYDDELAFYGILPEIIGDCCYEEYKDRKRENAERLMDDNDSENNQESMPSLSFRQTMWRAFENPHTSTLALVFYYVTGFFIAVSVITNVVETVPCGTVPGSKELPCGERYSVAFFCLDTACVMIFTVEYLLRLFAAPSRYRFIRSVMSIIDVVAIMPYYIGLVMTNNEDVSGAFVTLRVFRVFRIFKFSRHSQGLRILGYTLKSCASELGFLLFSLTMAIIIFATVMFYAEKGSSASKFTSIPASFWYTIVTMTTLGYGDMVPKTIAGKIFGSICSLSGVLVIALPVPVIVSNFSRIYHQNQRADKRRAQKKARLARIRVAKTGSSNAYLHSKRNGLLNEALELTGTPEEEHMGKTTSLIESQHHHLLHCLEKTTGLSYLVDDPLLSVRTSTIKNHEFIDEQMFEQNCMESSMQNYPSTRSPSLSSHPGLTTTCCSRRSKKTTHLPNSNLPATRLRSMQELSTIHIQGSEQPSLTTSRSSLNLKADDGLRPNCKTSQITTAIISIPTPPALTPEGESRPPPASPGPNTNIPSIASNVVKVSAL

[6] = tested on: Canis familiaris; assay: Toxicity in anesthetized Mongrel dog assessed as effect on mean arterial pressure at 0.3 to 100 ug/kg/min, iv administered as 60 mins infusion measured up to 60 mins by electrophysiology method; format: organism-based, Canis lupus familiaris; details: in vivo, 1 h
[7] = Clearance in rhesus monkey; format: ADME, Macaca mulatta; details: in vivo
[8] = tested on: Canis familiaris; assay: Toxicity in anesthetized Mongrel dog assessed as effect on QTc interval at 0.3 to 100 ug/kg/min, iv administered as 60 mins infusion measured up to 60 mins by electrophysiology method; format: organism-based, Canis lupus familiaris; details: in vivo, 1 h
[9] = Oral bioavailability in rat; format: ADME, organism-based; details: in vivo
[10] = biological target: T3, KCNQ1/KCNE1 (IKs) (Homo sapiens, UniProt P15382+P51787); assay: Inhibition of human KCNQ1/KCNE1 expressed in HEK293 cells assessed as reduction in slowly activating delayed rectifier cardiac potassium current at 10 uM by patch clamp electrophysiology method; format: cell-based; details: HEK293 cells expressing human KCNQ1/KCNE1
[11] = tested on: Canis familiaris; assay: Effect on ventricular refractory period in iv dosed anesthetized Mongrel dog assessed as threshold change in ventricular refractory period at 400 ms of basic cycle length administered as 60 mins infusion measured up to 60 mins by electrophysiology method; format: ADME, organism-based, Canis lupus familiaris; details: in vivo, 1 h
[12] = tested on: Canis familiaris; assay: Anti-atrial fibrillation activity in iv dosed anesthetized Mongrel dog assessed as increase in atrial refractory period at 400 ms of basic cycle length administered as 60 mins infusion measured up to 60 mins by electrophysiology method; format: functional, Canis lupus familiaris
[13] = Clearance in dog; format: ADME, Canis lupus familiaris; details: in vivo
[14] = biological target: T4, Voltage-gated inwardly rectifying potassium channel KCNH2 (Homo sapiens, UniProt Q12809); assay: Inhibition of human ERG expressed in CHOK1 cells assessed as reduction in rapidly activating delayed rectifier cardiac potassium current by whole-cell voltage-patch clamp assay; format: cell-based
[15] = Selectivity index, ratio of IC50 for human KCNQ1/KCNE1 IKs channel expressed in HEK293 cells to IC50 for Kv1.5 IKur channel in human atrial myocytes
[16] = Volume of distribution at steady state in dog; format: ADME, Canis lupus familiaris; details: in vivo, read-out: Vdss
[17] = tested on: Canis familiaris; assay: Toxicity in anesthetized Mongrel dog assessed as effect on ventricular refractory period at 0.3 to 100 ug/kg/min, iv administered as 60 mins infusion measured up to 60 mins by electrophysiology method; format: organism-based, Canis lupus familiaris; details: in vivo, 1 h
[18] = tested on: Canis familiaris; assay: Toxicity in anesthetized Mongrel dog assessed as effect on ECG at 0.3 to 100 ug/kg/min, iv administered as 60 mins infusion measured up to 60 mins by electrophysiology method; format: organism-based, Canis lupus familiaris; details: in vivo, 1 h
[19] = tested on: Canis familiaris; assay: Selectivity index, ratio of compound effect for anti-atrial fibrillation activity in iv dosed anesthetized Mongrel dog assessed as increase in atrial refractory period to compound effect on ventricular refractory period in iv dosed anesthetized Mongrel dog; design: species or system Canis lupus familiaris
[20] = tested on: Canis familiaris; assay: Anti-atrial fibrillation activity in anesthetized Mongrel dog assessed as increase in atrial refractory period at 400 ms of basic cycle length at 0.3 to 100 ug/kg/min, iv administered as 60 mins infusion measured up to 60 mins by electrophysiology method; format: functional, organism-based; details: Canis lupus familiaris
[21] = Clearance in rat; format: ADME; details: in vivo
[22] = Oral bioavailability in dog; format: ADME, organism-based, Canis lupus familiaris; details: in vivo
[23] = biological target: Sodium channel protein type 5 subunit alpha (Homo sapiens, UniProt Q14524); assay: Inhibition of SCN5a (unknown origin) assessed as reduction in sodium current at 10 uM by voltage/ion probe reader method
[24] = tested on: Canis familiaris; assay: Toxicity in anesthetized Mongrel dog assessed as effect on PR interval at 0.3 to 100 ug/kg/min, iv administered as 60 mins infusion measured up to 60 mins by electrophysiology method; format: organism-based, Canis lupus familiaris; details: in vivo, 1 h
[25] = biological target: T3, KCNQ1/KCNE1 (IKs); assay: Inhibition of human KCNQ1/KCNE1 expressed in HEK293 cells assessed as reduction in slowly activating delayed rectifier cardiac potassium current at 30 uM by patch clamp electrophysiology method; format: cell-based; details: HEK293 cells expressing human KCNQ1/KCNE1
[26] = biological target: T1, Potassium voltage-gated channel subfamily A member 5; assay: Inhibition of Kv1.5 mediated ultra-rapid delayed rectifier current Ikur in human atrial myocytes by voltage-patch clamp electrophysiology method; format: cell-based
[27] = Volume of distribution at steady state in rhesus monkey; format: ADME, Macaca mulatta; details: in vivo, read-out: Vdss
[28] = Oral bioavailability in rhesus monkey; format: ADME, organism-based, Macaca mulatta; details: in vivo
[29] = organism: Homo sapiens; assay: Substrate activity at human P-gp assessed as efflux ratio
[30] = tested on: Canis familiaris; assay: Toxicity in anesthetized Mongrel dog assessed as effect on QRS interval at 0.3 to 100 ug/kg/min, iv administered as 60 mins infusion measured up to 60 mins by electrophysiology method; format: organism-based, Canis lupus familiaris; details: in vivo, 1 h
[31] = Volume of distribution at steady state in rat; format: ADME; details: in vivo, read-out: Vdss
[32] = Metabolic stability in human hepatocytes up to 3 hrs by mass spectrometry; format: ADME, cell-based, Hepatocyte
[33] = Protein binding in rat plasma; format: ADME, cell-free; details: read-out: PPB (converted)
[34] = biological target: T4, Voltage-gated inwardly rectifying potassium channel KCNH2; assay: Displacement of [3H]-MK499 from human ERG IKr channel expressed in HEK293 cell membranes
[35] = Protein binding in rhesus monkey plasma; format: ADME, cell-free, Macaca mulatta; details: read-out: PPB (converted)
[36] = tested on: Canis familiaris; assay: Toxicity in anesthetized Mongrel dog assessed as effect on heart rate at 0.3 to 100 ug/kg/min, iv administered as 60 mins infusion measured up to 60 mins by electrophysiology method; format: organism-based, Canis lupus familiaris; details: in vivo, 1 h
[37] = Protein binding in dog plasma; format: ADME, cell-free, Canis lupus familiaris; details: read-out: PPB (converted)

T1 sequence (P22460 whole entry): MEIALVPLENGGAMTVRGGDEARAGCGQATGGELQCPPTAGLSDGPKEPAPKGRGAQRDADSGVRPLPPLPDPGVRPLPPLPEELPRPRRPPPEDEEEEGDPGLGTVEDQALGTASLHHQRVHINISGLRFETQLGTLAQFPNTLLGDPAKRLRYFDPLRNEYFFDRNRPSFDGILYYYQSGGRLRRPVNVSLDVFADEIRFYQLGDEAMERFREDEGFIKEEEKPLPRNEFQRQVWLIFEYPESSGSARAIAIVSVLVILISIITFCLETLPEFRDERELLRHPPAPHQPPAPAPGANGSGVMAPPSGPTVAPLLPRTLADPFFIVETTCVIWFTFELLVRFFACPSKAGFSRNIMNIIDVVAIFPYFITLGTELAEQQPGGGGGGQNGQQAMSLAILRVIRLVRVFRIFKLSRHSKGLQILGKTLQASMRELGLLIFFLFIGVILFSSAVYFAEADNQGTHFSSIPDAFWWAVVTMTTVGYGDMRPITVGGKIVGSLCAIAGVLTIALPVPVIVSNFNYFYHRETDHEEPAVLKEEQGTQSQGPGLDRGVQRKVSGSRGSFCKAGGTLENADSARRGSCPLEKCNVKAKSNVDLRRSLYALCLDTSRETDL
T4 sequence (Q12809 whole entry): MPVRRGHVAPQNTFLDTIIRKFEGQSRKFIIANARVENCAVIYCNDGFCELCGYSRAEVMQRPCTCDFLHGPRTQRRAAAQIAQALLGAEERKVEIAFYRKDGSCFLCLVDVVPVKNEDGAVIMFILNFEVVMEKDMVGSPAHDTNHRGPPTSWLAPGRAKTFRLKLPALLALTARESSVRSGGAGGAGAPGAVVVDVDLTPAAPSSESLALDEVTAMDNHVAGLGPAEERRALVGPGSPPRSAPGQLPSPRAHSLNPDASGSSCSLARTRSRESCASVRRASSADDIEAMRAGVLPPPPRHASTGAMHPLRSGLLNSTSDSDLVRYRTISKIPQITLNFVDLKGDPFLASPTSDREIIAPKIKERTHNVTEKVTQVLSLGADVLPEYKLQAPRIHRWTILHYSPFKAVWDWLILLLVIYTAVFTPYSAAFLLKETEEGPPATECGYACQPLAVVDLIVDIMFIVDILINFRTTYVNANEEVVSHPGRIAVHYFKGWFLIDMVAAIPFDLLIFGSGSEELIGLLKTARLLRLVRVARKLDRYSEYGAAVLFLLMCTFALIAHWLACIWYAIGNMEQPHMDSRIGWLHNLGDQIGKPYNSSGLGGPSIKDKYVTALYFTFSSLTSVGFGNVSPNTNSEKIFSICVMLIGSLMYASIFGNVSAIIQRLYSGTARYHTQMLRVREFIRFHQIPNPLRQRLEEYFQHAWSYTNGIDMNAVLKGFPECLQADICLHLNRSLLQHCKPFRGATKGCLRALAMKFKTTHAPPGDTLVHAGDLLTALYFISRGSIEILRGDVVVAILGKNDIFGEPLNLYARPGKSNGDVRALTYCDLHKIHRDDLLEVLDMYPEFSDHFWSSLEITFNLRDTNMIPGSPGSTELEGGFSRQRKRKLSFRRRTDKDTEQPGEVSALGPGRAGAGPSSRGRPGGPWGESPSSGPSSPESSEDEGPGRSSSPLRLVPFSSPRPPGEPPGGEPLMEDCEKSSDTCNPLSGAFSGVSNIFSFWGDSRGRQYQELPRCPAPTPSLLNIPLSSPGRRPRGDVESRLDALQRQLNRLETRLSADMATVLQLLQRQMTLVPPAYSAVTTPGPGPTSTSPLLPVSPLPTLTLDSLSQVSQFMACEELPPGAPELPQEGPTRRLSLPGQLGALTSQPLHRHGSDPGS
T3 sequence (P51787 whole entry, the tested form may be a part): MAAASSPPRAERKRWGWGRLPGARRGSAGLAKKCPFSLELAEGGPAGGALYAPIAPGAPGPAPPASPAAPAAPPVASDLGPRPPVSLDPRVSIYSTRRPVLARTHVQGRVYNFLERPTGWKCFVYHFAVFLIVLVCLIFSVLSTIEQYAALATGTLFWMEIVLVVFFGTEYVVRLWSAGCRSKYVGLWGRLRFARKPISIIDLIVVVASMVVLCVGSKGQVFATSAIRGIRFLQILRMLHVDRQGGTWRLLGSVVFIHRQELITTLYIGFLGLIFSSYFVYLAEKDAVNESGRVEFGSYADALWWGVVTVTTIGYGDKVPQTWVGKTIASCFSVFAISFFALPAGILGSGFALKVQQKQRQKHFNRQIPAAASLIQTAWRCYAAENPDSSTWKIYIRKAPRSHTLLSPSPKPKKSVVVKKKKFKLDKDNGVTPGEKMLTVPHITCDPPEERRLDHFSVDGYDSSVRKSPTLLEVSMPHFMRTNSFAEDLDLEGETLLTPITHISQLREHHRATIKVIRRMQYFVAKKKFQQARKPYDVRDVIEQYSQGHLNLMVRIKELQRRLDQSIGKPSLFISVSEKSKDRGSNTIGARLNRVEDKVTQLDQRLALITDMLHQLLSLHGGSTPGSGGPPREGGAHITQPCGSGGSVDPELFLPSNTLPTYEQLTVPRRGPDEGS
Sequence of Sodium channel protein type 5 subunit alpha (Q14524 whole entry, the tested form may be a part): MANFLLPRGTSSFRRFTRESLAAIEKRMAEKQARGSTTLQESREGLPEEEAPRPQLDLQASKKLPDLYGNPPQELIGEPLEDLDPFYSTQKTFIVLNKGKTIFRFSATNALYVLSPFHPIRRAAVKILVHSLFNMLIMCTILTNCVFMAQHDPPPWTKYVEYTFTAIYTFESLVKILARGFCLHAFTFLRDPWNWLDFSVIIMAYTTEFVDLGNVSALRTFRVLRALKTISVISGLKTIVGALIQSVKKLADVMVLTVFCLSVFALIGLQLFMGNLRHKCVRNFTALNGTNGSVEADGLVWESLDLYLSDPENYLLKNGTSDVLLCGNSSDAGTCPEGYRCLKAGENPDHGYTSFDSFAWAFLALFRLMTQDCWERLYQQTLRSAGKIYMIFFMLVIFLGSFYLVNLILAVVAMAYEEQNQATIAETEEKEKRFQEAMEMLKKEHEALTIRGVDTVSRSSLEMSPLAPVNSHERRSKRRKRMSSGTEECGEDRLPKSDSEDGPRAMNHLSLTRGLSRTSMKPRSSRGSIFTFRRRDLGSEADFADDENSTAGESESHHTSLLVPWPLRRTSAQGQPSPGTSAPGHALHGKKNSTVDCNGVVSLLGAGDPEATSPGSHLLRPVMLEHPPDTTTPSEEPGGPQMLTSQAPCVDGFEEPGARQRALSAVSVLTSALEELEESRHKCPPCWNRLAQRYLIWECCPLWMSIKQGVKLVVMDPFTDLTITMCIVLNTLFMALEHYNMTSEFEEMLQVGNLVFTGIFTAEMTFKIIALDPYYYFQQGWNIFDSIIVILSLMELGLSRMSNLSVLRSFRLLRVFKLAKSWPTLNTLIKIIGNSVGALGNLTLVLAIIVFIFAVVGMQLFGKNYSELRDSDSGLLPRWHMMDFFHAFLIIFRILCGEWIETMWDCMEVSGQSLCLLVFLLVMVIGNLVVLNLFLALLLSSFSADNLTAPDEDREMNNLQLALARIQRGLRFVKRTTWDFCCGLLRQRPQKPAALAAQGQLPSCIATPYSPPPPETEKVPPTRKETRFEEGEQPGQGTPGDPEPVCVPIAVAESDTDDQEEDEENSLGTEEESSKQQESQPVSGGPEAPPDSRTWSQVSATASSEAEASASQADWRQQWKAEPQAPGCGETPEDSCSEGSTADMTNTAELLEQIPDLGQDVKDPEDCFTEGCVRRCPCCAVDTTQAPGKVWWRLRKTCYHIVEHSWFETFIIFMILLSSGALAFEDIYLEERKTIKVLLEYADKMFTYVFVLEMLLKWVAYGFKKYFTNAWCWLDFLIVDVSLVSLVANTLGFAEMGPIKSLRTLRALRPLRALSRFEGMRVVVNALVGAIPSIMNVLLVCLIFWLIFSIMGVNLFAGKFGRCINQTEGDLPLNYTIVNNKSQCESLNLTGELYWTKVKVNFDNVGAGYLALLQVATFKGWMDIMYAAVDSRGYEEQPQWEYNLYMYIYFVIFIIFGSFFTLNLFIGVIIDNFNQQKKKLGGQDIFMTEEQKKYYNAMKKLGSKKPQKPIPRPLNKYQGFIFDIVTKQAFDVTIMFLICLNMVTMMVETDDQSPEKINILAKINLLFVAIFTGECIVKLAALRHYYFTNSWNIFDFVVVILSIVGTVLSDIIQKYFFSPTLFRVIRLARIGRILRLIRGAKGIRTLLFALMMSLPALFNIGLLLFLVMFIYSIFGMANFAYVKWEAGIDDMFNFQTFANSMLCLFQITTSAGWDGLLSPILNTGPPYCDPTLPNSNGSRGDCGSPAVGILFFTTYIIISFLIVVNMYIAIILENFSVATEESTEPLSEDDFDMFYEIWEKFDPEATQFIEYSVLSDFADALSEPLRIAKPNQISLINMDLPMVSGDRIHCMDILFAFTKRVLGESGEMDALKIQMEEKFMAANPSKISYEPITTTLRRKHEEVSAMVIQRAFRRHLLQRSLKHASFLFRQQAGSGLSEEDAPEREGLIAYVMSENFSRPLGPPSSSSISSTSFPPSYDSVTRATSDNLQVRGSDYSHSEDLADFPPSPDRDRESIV

Which results are given for `O[C@@H](c1cccnc1-c1cc(Cl)cc(Cl)c1)C(c1cccnc1)c1cccnc1`?
half-life [1]: 2.6 h; half-life [2]: 1 h; half-life [3]: 1.6 h; IC50 [4]: 0.029 to 2.92 µM; IC50 [5]: 8.3 µM; Activity [6]: Non-Toxic; clearance [7]: 14.3 mL/min/kg; Activity [8]: Non-Toxic; bioavailability [9]: 34%; inhibition at 10 µM [10]: 5.7%; Activity [11]: > 25 µM; EC10 [12]: 0.014 µM; clearance [13]: 3.7 mL/min/kg; IC50 [14]: 128 µM; Ratio IC50 [15]: >3000; Vd [16]: 0.81 L/kg; Activity [17]: Non-Toxic; Activity [18]: Non-Toxic; Selectivity Index [19]: >1800; Activity [20]: Active; clearance [21]: 16.7 mL/min/kg; bioavailability [22]: 93%; inhibition (INH) [23]: Not Active; Activity [24]: Non-Toxic; inhibition at 30 µM [25]: 7%; IC50 [26]: 0.011 µM; Vd [27]: 0.99 L/kg; bioavailability [28]: 21%; Ratio [29]: 30; Activity [30]: Non-Toxic; Vd [31]: 1.59 L/kg; Stability [32]: Unstable; fraction unbound [33]: 0.21; IC50 [34]: > 30 µM; fraction unbound [35]: 0.08; Activity [36]: Non-Toxic; fraction unbound [37]: 0.16
